Consider 2 molecules from article PMC11840605, “Crystallographic and Thermodynamic Evidence of Negative Coupling in the Flavin-Dependent Tryptophan Halogenases AbeH and BorH” (ACS Omega, 2025).

In one assay the test system is BorH/Trp. The experiment in a line: Isothermal titration calorimetry, FAD into BorH preincubated with Trp. It counts as binding, uncultured soil actinomycetes. How it is done: (§1) ITC experiments were performed using a VP-ITC isothermal titration calorimeter (MicroCal) in 20 mM HEPES pH 7.5, 350 mM NaCl, 1 mM ethylenediamine tetraacetic acid (EDTA) and 15% (v/v) glycerol. Solutions of AbeH, BorH, FAD (Chem-Implex), and Trp (Acros Organics) were prepared in the same buffer and degassed under vacuum at 30 °C for 20 min before loading in the syringe or cell. To analyze formation of binary complexes, AbeH or BorH was placed inside the cell, and ligand (FAD or Trp) was injected. For ternary complex titration, one ligand was preincubated with the macromolecule for 30 min at 30 °C to form binary complexes of AbeH/FAD, AbeH/Trp, BorH/FAD, and BorH/Trp before titrating with the second ligand. […] Formation of FADH2 by sodium dithionite was verified using absorbance and fluorescence spectrophotometry.
(§2) ITC experiments were performed with reference power set to 10 μcal/s and Milli-Q water in the reference cell. […] Heats of dilution for all titrants were measured by titrating ligand into buffer for binary complex titrations, and by titrating ligand into a solution containing the other ligand but no protein for ternary complex titration. […]
(§3) Titrations were analyzed by manually integrating each injection, subtracting the heat of dilution, and carrying out nonlinear least-squares fit of the calorimetric binding data to a one-site model using Origin 7.0 (Origin Lab). […]

A further assay addresses AbeH/Trp (uncultured bacterium, UniProt F6LWA5). The experiment in a line: FAD fluorescence quenching titration with AbeH preincubated with Trp. The format is binding, uncultured soil actinomycetes. How it is done: Quenching of FAD fluorescence quenching upon binding to AbeH was measured in the absence and presence of Trp in 20 mM Tris-HCl pH 8.0 and 100 mM NaCl using a Quantmaster 40 fluorimeter (Photon Technologies International). Trp and FAD solutions were prepared in 20 mM Tris-HCl pH 8, and concentrations were determined by absorbance at 280 and 450 nm, respectively. FAD fluorescence was measured using excitation at 450 nm (4 nm slit opening) and emission set at 525 nm (6 nm slit opening) using a fluorescence cuvette to collect 50 scans, which were averaged later during data processing in Microsoft Excel. […] Raw fluorescence intensities were corrected for the buffer, Trp, and AbeH background contributions. Quenched fluorescence intensity was plotted vs AbeH concentration and fit to eq 1 using GraphPad Prism 8.0 by nonlinear regression analysis. In eq 1, F = fractional saturation, ΔF = fluorescence quenching upon AbeH/FAD complex formation (calculated from the difference of FAD fluorescence intensity at different AbeH concentration), ΔFmax = maximum fluorescence change obtained from fit, [AbeHFAD] = FAD-bound AbeH, [AbeH]T = Total AbeH concentration, [FAD]T = Total FAD concentration, KD = equilibrium dissociation constant. […]
A. Fluorescence quenching observed from binding of Apo-AbeH ([…]) to […] FAD; […]

In a further assay the target is AbeF. Particulars: read-out: KD, flavin binding to AbeF; cited from earlier work.
A further assay deals with AbeH (uncultured bacterium, UniProt F6LWA5). It counts as biochemical, uncultured soil actinomycetes. The conditions noted are these: same reaction conditions. The method, then:
To test the ability of BorH and AbeH to chlorinate and brominate other substrates, 100 μL reactions containing 5 μM AbeH or BorH, 10 μM of holo-AbeF or holo-BorF, 100 mM NaCl or NaBr, 2.5 mM NADH, and 0.5 mM substrate in HEPES pH 8.0 were incubated for 12 h at 37 °C with shaking at 230 rpm. The reactions were stopped by heating at 95 °C for 5 min and centrifuged at 12,000g for 5 min. Clarified reaction mixtures were analyzed using RP-HPLC on a Kromasil C18 column (100 Å pore size, 4.6 × 250 mm) mounted on a Waters 2695 HPLC. The gradient was as follows: 0–7.5 min, 5–50% B; 7.5–14 min, 50–100%; 14–25 min, 100% B; 25–40 min 100–5% B with flow rate 0.6 mL/min (Solvent A = H2O/CH3CN 95:5, 0.1% TFA; Solvent B = H2O/CH3CN 5/95, 0.1% TFA). Substrates and products were detected by monitoring UV absorbance at the λmax for each substrate. Product peak fractions were analyzed using ESI-MS on a SYNAPT HDMS mass spectrometer in positive ion mode with leucine enkephalin internal standard.

Another assay relates to AbeH/FAD. The experiment in a line: Isothermal titration calorimetry, Trp into AbeH preincubated with FAD. It counts as binding, uncultured soil actinomycetes. The method, then: as §1, §2, §3

Molecules are shown by their SMILES. “Also recorded” adds a separate entry of the source.

Chain of AbeH/Trp (F6LWA5 entry or part of it): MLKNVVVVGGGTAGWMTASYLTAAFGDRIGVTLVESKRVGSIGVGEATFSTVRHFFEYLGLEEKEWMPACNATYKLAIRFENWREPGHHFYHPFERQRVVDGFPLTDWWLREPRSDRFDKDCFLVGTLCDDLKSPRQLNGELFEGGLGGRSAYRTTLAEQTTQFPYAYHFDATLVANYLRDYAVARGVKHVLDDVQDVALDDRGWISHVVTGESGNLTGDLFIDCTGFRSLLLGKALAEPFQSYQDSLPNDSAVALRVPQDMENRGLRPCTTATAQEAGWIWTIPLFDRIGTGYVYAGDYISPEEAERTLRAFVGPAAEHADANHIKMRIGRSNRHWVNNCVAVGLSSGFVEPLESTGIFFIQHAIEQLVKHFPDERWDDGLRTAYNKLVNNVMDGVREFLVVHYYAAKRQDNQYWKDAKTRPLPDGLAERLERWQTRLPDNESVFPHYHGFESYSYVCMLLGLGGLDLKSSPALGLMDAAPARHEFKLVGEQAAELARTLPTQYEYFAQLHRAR
Chain of AbeH (F6LWA5 entry or part of it): as above

Consider `Cc1cc2nc3c(=O)[nH]c(=O)nc-3n(C[C@H](O)[C@H](O)[C@H](O)COP(=O)(O)OP(=O)(O)OC[C@H]3O[C@@H](n4cnc5c(N)ncnc54)[C@H](O)[C@@H]3O)c2cc1C` [FAD], for which the “Binding of FAD to preincubated BorH/Trp by ITC, in words” value in the assay on BorH/Trp (0.63 mM FAD into 10 μM BorH preincubated with 18 mM Trp (95% saturated)) is “No binding was observed; also recorded: failed to detect any heat of binding; also recorded: no evidence of binding”. Also, the “KD, FAD binding to BorH/Trp, ITC” value on BorH/Trp (BorH preincubated with Trp) is given as “no binding”. The Kd was 3.1 µM on AbeH/Trp (AbeH/FAD KD, FAD fluorescence quenching (Figure S10 B), in the presence of 0.3 mM Trp); 7.7 ± 2.2 µM on AbeH/Trp (KD, FAD binding to AbeH/Trp, FAD fluorescence, AbeH preincubated with Trp); 0.8 µM at AbeF.
For the molecule `N[C@@H](Cc1c[nH]c2ccccc12)C(=O)O` [Tryptophan, L-tryptophan], on AbeH, the “AbeH bromination compared with chlorination of the substrate, in words” value is on record as “prefers chlorination over bromination”. The “Binding of Trp to preincubated AbeH/FAD by ITC, in words” value in the assay on AbeH/FAD (27 mM Trp into 48 μM AbeH preincubated with 3.3 mM FAD, listed as Trp) is “No binding was observed; also recorded: no evidence of Trp binding”. Further, the “KD, Trp binding to AbeH/FAD, ITC” value on AbeH/FAD (AbeH preincubated with FAD) is reported as “no binding”.
